Data from patent publication US5385829A, “Method of assaying for acyl-L-carnitines and short-chain acyl-carnitines” (priority 1990, dated 1995).

How the values were obtained:
[1] = test system: L-carnitine dehydrogenase; test: Km values and coenzyme reactivity of L-carnitine dehydrogenase; format: biochemical, Alcaligenes sp. No. 981; conditions: for Km: L-carnitine dehydrogenase, 100 mM tris-HCl buffer pH 9.0
Method: The L-carnitine dehydrogenase used in preparing the analysis reagent for determining the amount of L-carnitine, should have reactivity to the substrate, namely, L-carnitine, and may be employed in combination with a coenzyme such as an NAD (preferably NAD or thio-NAD). Such reactivity can be confirmed using the combination of such coenzyme with the substrate. For example, it has been confirmed that, when using L-carnitine as the substrate and thio-NAD as the coenzyme in 100 mM tris-HCl buffer solution (pH 9.0), the L-carnitine dehydrogenase produced from Alcaligenes sp.
Km value for NAD^+ was determined by varying the concentration of the NAD^+ in a reaction solution containing 100 mM tris-HCl buffer solution (pH 9.0). 5 units of diaphorase (a product of Toyo Jozo), 0.025% of NBT (a product of Wako Pure Chemical Ind.), 1% of Tween 80 (a product of Wako Pure Chemical Ind.) and 50 mM L-carnitine, whereby a value of 0.141 mM was obtained.

[2] = test system: L-carnitine dehydrogenase; test: Substrate specificity of L-carnitine dehydrogenase; format: biochemical; conditions: L-carnitine dehydrogenase from Alcaligenes sp. No. 981
Method: 1 ml of the reaction solution was placed in a small test tube and incubated at 37° C. for 5 mins. and thereto was added 0.02 ml of the […] solution to be examined, to cause the reaction, with agitation. After 10 mins. 2 ml of 0.1N aq. HCl were added thereto to terminate the reaction and the A550 nm of the solution was measured to obtained the absorbance A1.
On the other hand, the same procedures were repeated for a reaction solution in which the L-carnitine was omitted, to obtain the absorbance A0.

## NC(=O)c1ccc[n+]([C@@H]2O[C@H](COP(=O)([O-])OP(=O)(O)OC[C@H]3O[C@@H](n4cnc5c(N)ncnc54)[C@H](O)[C@@H]3O)[C@@H](O)[C@H]2O)c1 [NAD, nicotinamide adenine dinucleotide]
[1]
  Km: 140 µM
[1]; listed as NAD^+
  Km: 141 µM

## C[N+](C)(C)C[C@H](O)CC(=O)[O-] [L-carnitine]
[1]
  Km: 9300 µM
[2]
  Relative Specificity %: 100%

## NC(=S)c1ccc[n+]([C@@H]2O[C@H](COP(=O)([O-])OP(=O)(O)OC[C@H]3O[C@@H](n4cnc5c(N)ncnc54)[C@H](O)[C@@H]3O)[C@@H](O)[C@H]2O)c1 [thio-NAD, thionicotinamide adenine dinucleotide]
[1]; L-carnitine as substrate, 100 mM tris-HCl pH 9.0
  enzymatic activity relative to the activity when using NAD as the coenzyme: about 15%
[1]
  Km: 490 µM

## Glucose
[2]
  Relative Specificity %: 0%

## C[N+](C)(C)CC(=O)[O-] [Glycinebetaine]
[2]
  Relative Specificity %: 0%

## NCCCC[C@H](N)C(=O)O [Lysine]
[2]
  Relative Specificity %: 0%
